Assay results as given in patent US9283242B2, “Uses of dihydro bases” (priority 2013, dated 2016).
“Also recorded” adds a separate entry of the source.

Assay: Variable temperature 1H NMR, tautomerism in DMF-d7
Assay type: physicochemical
Details: for tautomerism by Variable Temperature NMR: DMF-d7, 20 to −60° C.
Procedure: At 20° C., exchangeable protons on the base moiety are observed at 7.58 ppm and 4.14 ppm (FIG. 10). At −60° C., exchangeable protons on the base moiety are observed at 8.70 ppm, 8.08 ppm, and 4.68 ppm (FIG. 11). Protons with a chemical shift of 8.70, 8.08, and 7.58 ppm likely correspond to enolic, amido, or imino protons, while protons with a chemical shift of 4.68 and 4.14 ppm likely correspond to amino protons. The expected chemical shifts for enolic, amido, and imino protons are relatively close, and thus these species cannot be assigned at this stage. […] Only the existence of multiple tautomeric species would explain the presence of three exchangeable protons resonances. […] Based on their chemical structures, the keto-amino tautomer will pair with guanine and the keto-imino/enol-imino tautomers can pair with adenine.
All NMR experiments were performed on Varian 500 MHz NMR spectrometers. The deuterated solvent DMF-d7 was from Cambridge Isotope Laboratories, Andover, Mass., USA. 5-Aza-5,6-dihydro-2′-deoxycytidine (KP1212) nucleoside was from Berry & Associates Inc., Dexter, Mich., USA. The NMR sample was prepared by dissolving 10 mg of KP1212 nucleoside in 1.0 ml DMF-d7 (final concentration ˜44 mM). ^1H NMR spectra were reported in parts per million (ppm) and were referenced to the signals for DMF-d7 (8.03 ppm). ^13C NMR spectra were referenced to the signals for DMF-d7 (163.15 ppm).
FIG. 14A depicts the structures of all five possible tautomers (1 to 5) of KP1212, among which the three active protons on the nucleobase shift among the 02, N3, N4 and N5 positions. […] Before assigning the three active protons on the nucleobase moiety, all non-exchangeable protons in KP1212 and the two hydroxyl protons on the 3′ and 5′ positions were identified by carrying out 1D (^1H and ^13C) and 2D (COSY, HSQC, and HMBC) NMR experiments. The NMR signals of the three active protons in the base portion of KP1212 were studied at different temperatures. […] When the temperature was decreased to −50° C., the three broad peaks resolved into six distinct proton resonances (FIG. 14B, denoted as peaks i-vi), which could be assigned to imino (designated as e and n in FIGS. 14A to 14C), amido (designated as g and m), enolic (designated as c and d) or amino (designated as a, b, f, h, i, j, k, l, and o) protons.
At −50° C. six distinct proton resonances (FIG. 14B, i to vi) were observed, attributable to protons bound either to nitrogen or to oxygen atom (for only the base portion of the KP1212 molecule). Integration of the six broad peaks permitted estimation of the relative ratios of the five tautomeric species that exist in solution (FIG. 14A).
The NMR data also allowed the determination of the relative ratios of the tautomeric species present in the DMF solution at −50° C. (FIGS. 14B and 14C). Several peaks in the NMR spectrum partially overlapped (e.g., iv and v), so the raw data were reconstructed using a least squares fit algorithm (FIG. 16). The reconstructed peaks from the simulation were integrated, yielding an estimate of the relative amounts of each of the proton resonances in the spectrum. […] 2) Based on the peak assignments from part 1), a system of linear equations was set up using the relative amounts of tautomers as unknown variables (FIG. 14D). Each NMR peak provided a linear equation whereby the peak area should be equal to the sum of all tautomers (as relative amounts) containing protons that contribute to that peak. The solutions of these equations yielded the relative ratios of the tautomeric species present in DMF at −50° C. (FIG. 14D).

[1] = −50° C. in DMF, deconvoluted from NMR spectrum

Structure (SMILES)	tautomerism by Variable Temperature NMR	relative proportion of enol tautomer 1 [1] [%]	relative proportion of enol tautomer 2 [1] [%]	relative proportion of keto tautomers 3 to 5 collectively [1] [%]	tautomerism by Variable Temperature NMR (listed as deoxycytidine)
NC1=NC(=O)N([C@H]2C[C@H](O)[C@@H](CO)O2)CN1 [KP1212, 5-aza-5,6-dihydro-2′-deoxycytidine]	shows multiple tautomerism; also recorded: different tautomeric forms	51	38	11	
Nc1ccn([C@H]2C[C@H](O)[C@@H](CO)O2)c(=O)n1 [dC, deoxycytidine]	does not show multiple tautomerism; also recorded: single tautomerism				only one tautomeric form; also recorded: no imino or enol tautomer exists
